# Reference: paper PMC8486176 (Cancer Science, 2021)
# Ends that are not written are not given here. * marks the point of attachment. RhodamineB = CCN(CC)c1ccc2c(-c3ccccc3C(=O)*)c3ccc(=[N+](CC)CC)cc-3oc2c1
# System: NUGC‐4 cells
# Assay: Immunofluorescence binding of RhoB‐labeled peptides to fixed NUGC‐4 cells
# Type: cell-based, human
# Conditions: ImageJ quantification, Figure 4C
substance,measurement,value
"RhoB‐CG7C: CG7C peptide labeled with rhodamine B, negative control (RhodamineB-CGGGGGGGC; cysteine pairing not given here)",mean fluorescence intensity (MFI),small positive MFI
